# Assay results: patent EP2881391A1, “Spiroindoline carbocycle derivatives and pharmaceutical compositions thereof” (Bayer Pharma Aktiengesellschaft, priority 2013, dated 2015)
# Biological target: T1, human GnRH receptor (Homo sapiens, UniProt P30968)
# T1 construct: line established by Prof; Thomas Gudermann; host or cells: CHO cells
# T1 sequence (P30968 1-328): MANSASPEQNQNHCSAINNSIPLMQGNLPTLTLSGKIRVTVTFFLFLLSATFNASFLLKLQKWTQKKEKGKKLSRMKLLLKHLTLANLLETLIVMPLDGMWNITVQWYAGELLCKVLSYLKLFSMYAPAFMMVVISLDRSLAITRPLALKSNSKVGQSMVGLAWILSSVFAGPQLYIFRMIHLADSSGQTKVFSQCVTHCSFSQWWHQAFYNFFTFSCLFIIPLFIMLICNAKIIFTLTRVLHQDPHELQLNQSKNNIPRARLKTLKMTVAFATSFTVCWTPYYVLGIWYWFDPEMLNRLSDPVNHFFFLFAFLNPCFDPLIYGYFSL
# Experiment: IP-One HTRF assay (inhibition of GnRH-R activation by buserelin)
# Format: cell-based
# Conditions: IP-One HTRF assay with buserelin (at EC80) stimulation; CHO cells stably expressing human GnRH receptor; tested 20 µM to 1 nM; read-out: Potency IC50
# In short: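 CHO cells stably expressing human GnRH-R, pre-incubated 20 min at 22°C with compound (10 concentrations, 20 µM to 1 nM, duplicates), then stimulated 1 h at 37°C with buserelin or LHRH at EC50 or EC80 in pH 7.4 buffer with 50 mM LiCl. IP1 read by HTRF 665/620 nm ratio; IC50 by 4-parameter fit.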
row,Compound,IC50
1,"O=C(Nc1ccon1)c1ccc2c(c1)C1(CCC(O)(C(F)(F)F)CC1)C(C1CC1)N2S(=O)(=O)c1ccc(F)cc1 (centres unmarked) [Example 56, 2'-cyclopropyl-1' [(4-fluorophenyl)sulfonyl]-4-hydroxy-N-(1,2-oxazol-3-yl)-4-(trifluoromethyl)-1',2'-dihydrospiro[cyclohexane-1,3'-indole]-5'-carboxamide]",286 nM
2,"O=C(NCc1ccccc1Cl)c1ccc2c(c1)C1(CCC(=NO)CC1)C(C1CC1)N2S(=O)(=O)c1ccc(F)cc1 (centres unmarked) [Example 5, N-(2-chlorobenzyl)-2'-cyclopropyl-1'-[(4-fluorophenyl)sulfonyl]-4-(hydroxyimino)-1',2'-dihydrospiro[cyclohexane-1,3'-indole]-5'-carboxamide]",65.7 nM
3,"O=C(NCc1ncc(C(F)(F)F)cc1Cl)c1ccc2c(c1)C1(CCC(O)CC1)C(C1CC1)N2S(=O)(=O)c1ccc(F)cc1 (centres unmarked) [Example 7, N-{[3-chloro-5-(trifluoromethyl)pyridin-2-yl]methyl}-2'-cyclopropyl-1'-[(4-fluorophenyl)sulfonyl]-4-hydroxy-1',2'-dihydrospiro[cyclohexane-1,3'-indole]-5'-carboxamide]",52.1 nM
4,"CC1N(S(=O)(=O)c2ccc(F)cc2)c2ccc(C(=O)NCc3ccccc3Cl)cc2C12CCC(O)(C(F)(F)F)CC2 (centres unmarked) [Example 26, N-(2-chlorobenzyl)-1'-[(4-fluorophenyl)sulfonyl]-4-hydroxy-2'-methyl-4-(trifluoromethyl)-1',2'-dihydrospiro[cyclohexane-1,3'-indole]-5'-carboxamide]",432 nM
5,"COC(=O)c1cccc(NC(=O)c2ccc3c(c2)C2(CCC(O)(C(F)(F)F)CC2)C(C2CC2)N3S(=O)(=O)c2ccc(F)cc2)c1 (single isomer, unassigned) [Example 30-1]",142 nM
6,"O=C(NCc1ccccc1Cl)c1ccc2c(c1)C1(CCC(O)(C(F)(F)F)CC1)C(C1CC1)N2S(=O)(=O)c1ccc(F)cc1 (centres unmarked) [Example 62, N-(2-chlorobenzyl)-2'-cyclopropyl-1'-[(4-fluorophenyl)sulfonyl]-4-hydroxy-4-(trifluoromethyl)-1',2'-dihydrospiro[cyclohexane-1,3'-indole]-5'-carboxamide]",253 nM
7,"COc1cccc(S(=O)(=O)N2c3ccc(C(=O)Nc4cc[nH]n4)cc3C3(CCC(O)(C(F)(F)F)CC3)C2C2CC2)c1 (centres unmarked) [Example 33, 2'-cyclopropyl-4-hydroxy-1'-[(3-methoxyphenyl)su Ifonyl]-N-(1H-pyrazol-3-yl)-4-(trifluoromethyl)-1',2'-dihydrospiro[cyclohexane-1,3'-indole]-5'-carboxamide]",2230 nM
8,"CC(C)=CCC1N(S(=O)(=O)c2ccc(F)cc2)c2ccc(C(=O)Nc3cccc(C(=O)O)c3)cc2C12CCC(O)(C(F)(F)F)CC2 (centres unmarked) [Example 14, 3-[({1'-[(4-fluorophenyl)sulfonyl]-4-hydroxy-2'-(3-methylbut-2-en-1-yl)-4-(trifluoromethyl)-1',2'-dihydrospiro[cyclohexane-1,3'-indol]-5'-yl}carbonyl)amino] benzoic acid]",639 nM
9,"O=C(NCc1ncccc1C(F)(F)F)c1ccc2c(c1)C1(CCC(O)(C(F)(F)F)CC1)C(C1CC1)N2S(=O)(=O)c1ccc(F)cc1 (centres unmarked) [Example 65, 2'-cyclopropyl-1'-[(4-fluorophenyl)sulfonyl]-4-hydroxy-4-(trifluoromethyl)-N-{[3-(trifluoromethyl)pyridin-2-yl]methyl}-1',2'-dihydrospiro[cyclohexane-1,3'-indole]-5'-carboxamide]",311 nM
10,"O=C(NCc1ncccc1C(F)(F)F)c1ccc2c(c1)C1(CCC(O)(C(F)(F)F)CC1)C(C1CC1)N2S(=O)(=O)c1cccc(C(=O)N2CCC2)c1 (centres unmarked) [Example 66, 1'-{[3-(azetidin-1-ylcarbonyl)phenyl]sulfonyl}-2'-cyclopropyl-4-hydroxy-4-(trifluoromethyl)-N-{[3-(trifluoromethyl)pyridin-2-yl]methyl}-1',2'-dihydrospiro[cyclohexane-1,3'-indole]-5'-carboxamide]",2180 nM
11,"O=C1CCC2(CC1)c1cc(C(=O)NCc3ncc(C(F)(F)F)cc3Cl)ccc1N(S(=O)(=O)c1ccc(F)cc1)C2C1CC1 (centres unmarked) [Example 8, N-{[3-chloro-5-(trifluoromethyl)pyridin-2-yl]methyl}-2'-cyclopropyl-1'-[(4-fluorophenyl)sulfonyl]-4-oxo-1',2'-dihydrospiro[cyclohexane-1,3'-indole]-5'-carboxamide]",57.4 nM
12,"COc1cccc(S(=O)(=O)N2c3ccc(C(=O)Nc4cccc(S(N)(=O)=O)c4)cc3C3(CCC(O)(C(F)(F)F)CC3)C2C2CC2)c1 (centres unmarked) [Example 37, 2'-cyclopropyl-4-hydroxy-1'-[(3-methoxyphenyl)su Ifonyl]-N-(3-sulfamoylphenyl)-4-(trifluoromethyl)-1',2'-dihydrospiro[cyclohexane-1,3'-indole]-5'-carboxamide]",2640 nM
13,"CC(C)=CCC1N(S(=O)(=O)c2ccc(F)cc2)c2ccc(C(=O)Nc3cc[nH]n3)cc2C12CCC(O)(C(F)(F)F)CC2 (centres unmarked) [Example 12, 1'-[(4-fluorophenyl)sulfonyl]-4-hydroxy-2'-(3-methylbut-2-en-1-yl)-N-(1H-pyrazol-3-yl)-4-(trifluoromethyl)-1',2'-dihydrospiro[cyclohexane-1,3'-indole]-5'-carboxamide]",1420 nM
14,"CS(=O)(=O)c1cccc(NC(=O)c2ccc3c(c2)C2(CCC(O)(C(F)(F)F)CC2)C(C2CC2)N3S(=O)(=O)c2ccc(F)cc2)c1 (centres unmarked) [Example 46, 2'-cyclopropyl-1'-[(4-fluorophenyl)sulfonyl]-4-hydroxy-N-[3-(methylsulfonyl)phenyl]-4-(trifluoromethyl)-1',2'-dihydrospiro[cyclohexane-1,3'-indole]-5'-carboxamide]",540 nM
15,"O=C(NCc1ncccc1C(F)(F)F)c1ccc2c(c1)C1(CCC(O)(C(F)(F)F)CC1)C(C1CC1)N2S(=O)(=O)c1cccc(C(=O)N2CCC2)c1 (single isomer, unassigned) [Example 66-2]",612 nM
16,"O=C(O)c1cccc(S(=O)(=O)N2c3ccc(C(=O)Nc4ccon4)cc3C3(CCC(O)(C(F)(F)F)CC3)C2C2CC2)c1 (centres unmarked) [Example 48, 3-{[2'-cyclopropyl-4-hydroxy-5'-(1,2-oxazol-3-ylcarbamoyl)-4-(trifluoromethyl)spiro[cyclohexane-1,3'-indol]-1'(2'H)-yl]sulfonyl}benzoic acid]",6710 nM
17,"COC(=O)c1cccc(S(=O)(=O)N2c3ccc(C(=O)NCc4ccccc4Cl)cc3C3(CCCCC3)C2C2CC2)c1 (centres unmarked) [Example 9, methyl 3-({5'-[(2-chlorobenzyl)carbamoyl]-2'-cyclopropylspiro[cyclohexane-1,3'-indol]-1'(2'H)-yl}sulfonyl)benzoate]",2290 nM
18,"COC(=O)c1cccc(S(=O)(=O)N2c3ccc(C(=O)Nc4ccon4)cc3C3(CCC(O)(C(F)(F)F)CC3)C2C2CC2)c1 (centres unmarked) [Example 27, methyl 3-{[2'-cyclopropyl-4-hydroxy-5'-(1,2-oxazol-3-ylcarbamoyl)-4-(trifluoromethyl)spiro[cyclohexane-1,3'-indol]-1'(2'H)-yl]sulfonyl}benzoate]",1120 nM
19,"COc1cccc(S(=O)(=O)N2c3ccc(C(=O)NCc4ncccc4C(F)(F)F)cc3C3(CCC(O)(C(F)(F)F)CC3)C2C2CC2)c1 (centres unmarked) [Example 44, 2'-cyclopropyl-4-hydroxy-1'-[(3-methoxyphenyl)su Ifonyl]-4-(trifluoromethyl)-N-{[3-(trifluoromethyl)pyridin-2-yl]methyl}-1',2'-dihydrospiro[cyclohexane-1,3'-indole]-5'-carboxamide]",403 nM
20,"O=C(Nc1ccon1)c1ccc2c(c1)C1(CCC(O)(C(F)(F)F)CC1)C(C1CC1)N2S(=O)(=O)c1cccc(C(=O)N2CCC2)c1 (centres unmarked) [Example 57, 1'-{[3-(azetidin-1-ylcarbonyl)phenyl]sulfonyl}-2'-cyclopropyl-4-hydroxy-N-(1,2-oxazol-3-yl)-4-(trifluoromethyl)-1',2'-dihydrospiro[cyclohexane-1,3'-indole]-5'-carboxamide]",1220 nM
21,"Cc1cncc(NC(=O)c2ccc3c(c2)C2(CCC(O)(C(F)(F)F)CC2)C(C2CC2)N3S(=O)(=O)c2ccc(F)cc2)c1 (centres unmarked) [Example 25, 2'-cyclopropyl-1'-[(4-fluorophenyl)sulfonyl]-4-hydroxy-N-(5-methylpyridin-3-yl)-4-(trifluoromethyl)-1',2'-dihydrospiro[cyclohexane-1,3'-indole]-5'-carboxamide]",559 nM
22,"CC(C)=CCC1N(S(=O)(=O)c2ccc(F)cc2)c2ccc(C(=O)Nc3cccc(S(C)(=O)=O)c3)cc2C12CCC(O)(C(F)(F)F)CC2 (centres unmarked) [Example 15, 1'-[(4-fluorophenyl)sulfonyl]-4-hydroxy-2'-(3-methylbut-2-en-1-yl)-N-[3-(methylsulfonyl)phenyl]-4-(trifluoromethyl)-1',2'-dihydrospiro[cyclohexane-1,3'-indole]-5'-carboxamide]",1280 nM
23,"COc1cccc(S(=O)(=O)N2c3ccc(C(=O)Nc4cccc(C(=O)O)c4)cc3C3(CCC(O)(C(F)(F)F)CC3)C2C2CC2)c1 (centres unmarked) [Example 35, 3-[({2'-cyclopropyl-4-hydroxy-1 '-[(3-methoxyphenyl)su Ifonyl]-4-(trifluoromethyl)-1',2'-dihydrospiro[cyclohexane-1,3'-indol]-5'-yl}carbonyl)amino] benzoic acid]",1380 nM
